In PubChem BioAssay (NCI):
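Cells were grown in 96-well plates and exposed to each compound for 48 hours at five concentrations; endpoints were interpolated linearly between bracketing concentrations, or set to the highest concentration if not reached. At the GI50, growth is halved. TGI is the concentration that stops growth completely.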

Columns and labels:
Assay in all cases: NCI tumour cell line growth inhibition, 48 h
HS 578T breast = tested on: HS 578T breast
RPMI-8226 leukemia = tested on: RPMI-8226 leukemia
OVCAR-8 ovarian = tested on: OVCAR-8 ovarian
LOX IMVI melanoma = tested on: LOX IMVI melanoma
EKVX NSCLC = tested on: EKVX NSCLC
SNB-19 CNS = tested on: SNB-19 CNS
OVCAR-5 ovarian = tested on: OVCAR-5 ovarian
NCI/ADR-RES ovarian = tested on: NCI/ADR-RES ovarian
PC-3 prostate = tested on: PC-3 prostate
SF-268 CNS = tested on: SF-268 CNS
CCRF-CEM leukemia = tested on: CCRF-CEM leukemia
HCT-116 colon = tested on: HCT-116 colon
K-562 leukemia = tested on: K-562 leukemia
A498 renal = tested on: A498 renal
HL-60(TB) leukemia = tested on: HL-60(TB) leukemia
UACC-62 melanoma = tested on: UACC-62 melanoma
SK-MEL-28 melanoma = tested on: SK-MEL-28 melanoma
MDA-MB-231 breast = tested on: MDA-MB-231 breast
KM12 colon = tested on: KM12 colon
MCF7 breast = tested on: MCF7 breast
HOP-92 NSCLC = tested on: HOP-92 NSCLC
RXF 393 renal = tested on: RXF 393 renal
786-0 renal = tested on: 786-0 renal
UO-31 renal = tested on: UO-31 renal
CAKI-1 renal = tested on: CAKI-1 renal
HOP-62 NSCLC = tested on: HOP-62 NSCLC
NCI-H522 lung = tested on: NCI-H522 lung
HT29 colon = tested on: HT29 colon
NCI-H460 lung = tested on: NCI-H460 lung
DU-145 prostate = tested on: DU-145 prostate
SK-OV-3 ovarian = tested on: SK-OV-3 ovarian
TK-10 renal = tested on: TK-10 renal
SK-MEL-5 melanoma = tested on: SK-MEL-5 melanoma
IGROV1 ovarian = tested on: IGROV1 ovarian
SNB-75 CNS = tested on: SNB-75 CNS
SK-MEL-2 melanoma = tested on: SK-MEL-2 melanoma
ACHN renal = tested on: ACHN renal
COLO 205 colon = tested on: COLO 205 colon
OVCAR-4 ovarian = tested on: OVCAR-4 ovarian
SF-295 CNS = tested on: SF-295 CNS
M14 melanoma = tested on: M14 melanoma
HCC-2998 colon = tested on: HCC-2998 colon
A549 NSCLC = tested on: A549 NSCLC
MDA-MB-435 = tested on: MDA-MB-435
SN12C renal = tested on: SN12C renal
NCI-H226 lung = tested on: NCI-H226 lung
T-47D breast = tested on: T-47D breast
BT-549 breast = tested on: BT-549 breast
MALME-3M melanoma = tested on: MALME-3M melanoma
HCT-15 colon = tested on: HCT-15 colon
SR leukemia = tested on: SR leukemia
UACC-257 melanoma = tested on: UACC-257 melanoma
U251 CNS = tested on: U251 CNS
MOLT-4 leukemia = tested on: MOLT-4 leukemia
NCI-H23 lung = tested on: NCI-H23 lung
SW-620 colon = tested on: SW-620 colon
SF-539 CNS = tested on: SF-539 CNS

## CS(=O)(=O)Nc1cc(-c2ccc3ncc(C#N)c(NCc4ccccc4F)c3c2)cnc1Cl
HS 578T breast
  GI50: 49.8 nM
  TGI: 445 nM
RPMI-8226 leukemia
  GI50: 189 nM
  TGI: 1290 nM
OVCAR-8 ovarian
  GI50: 328 nM
  TGI: 12200 nM
LOX IMVI melanoma
  GI50: 191 nM
  TGI: 1010 nM
EKVX NSCLC
  GI50: 319 nM
  TGI: 5480 nM
SNB-19 CNS
  GI50: 293 nM
  TGI: 11500 nM
OVCAR-5 ovarian
  GI50: 386 nM
  TGI: 9740 nM
NCI/ADR-RES ovarian
  GI50: 1450 nM
  TGI: 29500 nM
PC-3 prostate
  GI50: 231 nM
  TGI: 10000 nM
SF-268 CNS
  GI50: 163 nM
  TGI: 3670 nM
CCRF-CEM leukemia
  GI50: 153 nM
  TGI: 45800 nM
HCT-116 colon
  GI50: 248 nM
  TGI: 1500 nM
K-562 leukemia
  GI50: 260 nM
  TGI: > 100000 nM
A498 renal
  GI50: 89.6 nM
  TGI: 461 nM
HL-60(TB) leukemia
  GI50: 253 nM
  TGI: 6390 nM
UACC-62 melanoma
  GI50: 118 nM
  TGI: 1270 nM
SK-MEL-28 melanoma
  GI50: 176 nM
  TGI: 4770 nM
MDA-MB-231 breast
  GI50: 343 nM
  TGI: 3800 nM
KM12 colon
  GI50: 280 nM
  TGI: 3860 nM
MCF7 breast
  GI50: 106 nM
  TGI: 11500 nM
HOP-92 NSCLC
  GI50: 23.8 nM
  TGI: 286 nM
RXF 393 renal
  GI50: 93.4 nM
  TGI: 925 nM
786-0 renal
  GI50: 308 nM
  TGI: 9520 nM
UO-31 renal
  GI50: 154 nM
CAKI-1 renal
  GI50: 131 nM
  TGI: 1420 nM
HOP-62 NSCLC
  GI50: 220 nM
  TGI: 4710 nM
NCI-H522 lung
  GI50: 335 nM
  TGI: 8140 nM
HT29 colon
  GI50: 324 nM
  TGI: 5490 nM
NCI-H460 lung
  GI50: 374 nM
  TGI: 11500 nM
DU-145 prostate
  GI50: 302 nM
  TGI: 12100 nM
SK-OV-3 ovarian
  GI50: 232 nM
  TGI: 1400 nM
TK-10 renal
  GI50: 100 nM
  TGI: 976 nM
SK-MEL-5 melanoma
  GI50: 163 nM
  TGI: 336 nM
IGROV1 ovarian
  GI50: 108 nM
  TGI: 876 nM
SNB-75 CNS
  GI50: 26.7 nM
  TGI: 370 nM
SK-MEL-2 melanoma
  GI50: 91.9 nM
  TGI: 320 nM
ACHN renal
  GI50: 436 nM
  TGI: > 52500 nM
COLO 205 colon
  GI50: 271 nM
  TGI: 1200 nM
OVCAR-4 ovarian
  GI50: 262 nM
  TGI: 6050 nM
SF-295 CNS
  GI50: 197 nM
  TGI: 1920 nM
M14 melanoma
  GI50: 243 nM
  TGI: 7010 nM
HCC-2998 colon
  GI50: 339 nM
  TGI: 8320 nM
A549 NSCLC
  GI50: 442 nM
  TGI: 4000 nM
MDA-MB-435
  GI50: 251 nM
  TGI: 10600 nM
SN12C renal
  GI50: 235 nM
  TGI: > 64000 nM
NCI-H226 lung
  GI50: 358 nM
  TGI: 18200 nM
T-47D breast
  GI50: 108 nM
  TGI: 5840 nM
BT-549 breast
  GI50: 60.9 nM
  TGI: 623 nM
MALME-3M melanoma
  GI50: 71.7 nM
  TGI: 475 nM
HCT-15 colon
  GI50: 264 nM
  TGI: 11700 nM
SR leukemia
  GI50: 123 nM
  TGI: 3200 nM
UACC-257 melanoma
  GI50: 244 nM
  TGI: 4940 nM
U251 CNS
  GI50: 155 nM
  TGI: 4270 nM
MOLT-4 leukemia
  GI50: 190 nM
  TGI: 2540 nM
NCI-H23 lung
  GI50: 271 nM
  TGI: 12300 nM
SW-620 colon
  GI50: 317 nM
  TGI: 10800 nM
SF-539 CNS
  GI50: 190 nM
  TGI: 1840 nM
